Our source for the % of inhibition and % of control values is ChEMBL document CHEMBL5465560, “Selectivity Literature for EUbOPEN Chemogenomic Library” (2024).

For test [1], the target named is T1, Serine/threonine-protein kinase Nek2 (Homo sapiens) (UniProt P51955).
T1 sequence (whole entry): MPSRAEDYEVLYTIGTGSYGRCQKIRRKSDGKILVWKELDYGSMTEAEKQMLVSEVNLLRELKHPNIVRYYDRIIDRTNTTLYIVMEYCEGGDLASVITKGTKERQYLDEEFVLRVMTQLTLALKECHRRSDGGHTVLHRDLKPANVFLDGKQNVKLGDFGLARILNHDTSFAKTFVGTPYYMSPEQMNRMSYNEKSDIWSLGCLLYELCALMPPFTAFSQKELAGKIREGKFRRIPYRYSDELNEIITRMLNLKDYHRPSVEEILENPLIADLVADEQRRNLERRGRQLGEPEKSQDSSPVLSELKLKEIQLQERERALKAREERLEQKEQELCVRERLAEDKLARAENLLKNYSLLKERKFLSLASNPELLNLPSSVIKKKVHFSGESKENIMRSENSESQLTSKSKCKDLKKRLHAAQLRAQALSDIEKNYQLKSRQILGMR
Description: Selectivity interaction (SelectScreen profiling (Invitrogen)) EUB0000607a NEK2. The following applies: at 2 µM.

For test [2], the target named is Mitogen-activated protein kinase 14 (Homo sapiens, UniProt Q16539). Description: Selectivity interaction (KinomeScan (DiscoverX)) EUB0000607a MAPK14. The following applies: at 10 µM.
The target of test [3] is Cyclin-dependent kinase-like 3 (Homo sapiens) (UniProt Q8IVW4). The following applies: at 10 µM.
Test [4] deals with High affinity nerve growth factor receptor (Homo sapiens, UniProt P04629). Description: Selectivity interaction (KinomeScan (DiscoverX)) EUB0001079a NTRK1. As to conditions: at 1 µM.
Test [5] deals with T2, Mitogen-activated protein kinase kinase kinase 6 (Homo sapiens) (UniProt O95382).
T2 sequence (whole entry): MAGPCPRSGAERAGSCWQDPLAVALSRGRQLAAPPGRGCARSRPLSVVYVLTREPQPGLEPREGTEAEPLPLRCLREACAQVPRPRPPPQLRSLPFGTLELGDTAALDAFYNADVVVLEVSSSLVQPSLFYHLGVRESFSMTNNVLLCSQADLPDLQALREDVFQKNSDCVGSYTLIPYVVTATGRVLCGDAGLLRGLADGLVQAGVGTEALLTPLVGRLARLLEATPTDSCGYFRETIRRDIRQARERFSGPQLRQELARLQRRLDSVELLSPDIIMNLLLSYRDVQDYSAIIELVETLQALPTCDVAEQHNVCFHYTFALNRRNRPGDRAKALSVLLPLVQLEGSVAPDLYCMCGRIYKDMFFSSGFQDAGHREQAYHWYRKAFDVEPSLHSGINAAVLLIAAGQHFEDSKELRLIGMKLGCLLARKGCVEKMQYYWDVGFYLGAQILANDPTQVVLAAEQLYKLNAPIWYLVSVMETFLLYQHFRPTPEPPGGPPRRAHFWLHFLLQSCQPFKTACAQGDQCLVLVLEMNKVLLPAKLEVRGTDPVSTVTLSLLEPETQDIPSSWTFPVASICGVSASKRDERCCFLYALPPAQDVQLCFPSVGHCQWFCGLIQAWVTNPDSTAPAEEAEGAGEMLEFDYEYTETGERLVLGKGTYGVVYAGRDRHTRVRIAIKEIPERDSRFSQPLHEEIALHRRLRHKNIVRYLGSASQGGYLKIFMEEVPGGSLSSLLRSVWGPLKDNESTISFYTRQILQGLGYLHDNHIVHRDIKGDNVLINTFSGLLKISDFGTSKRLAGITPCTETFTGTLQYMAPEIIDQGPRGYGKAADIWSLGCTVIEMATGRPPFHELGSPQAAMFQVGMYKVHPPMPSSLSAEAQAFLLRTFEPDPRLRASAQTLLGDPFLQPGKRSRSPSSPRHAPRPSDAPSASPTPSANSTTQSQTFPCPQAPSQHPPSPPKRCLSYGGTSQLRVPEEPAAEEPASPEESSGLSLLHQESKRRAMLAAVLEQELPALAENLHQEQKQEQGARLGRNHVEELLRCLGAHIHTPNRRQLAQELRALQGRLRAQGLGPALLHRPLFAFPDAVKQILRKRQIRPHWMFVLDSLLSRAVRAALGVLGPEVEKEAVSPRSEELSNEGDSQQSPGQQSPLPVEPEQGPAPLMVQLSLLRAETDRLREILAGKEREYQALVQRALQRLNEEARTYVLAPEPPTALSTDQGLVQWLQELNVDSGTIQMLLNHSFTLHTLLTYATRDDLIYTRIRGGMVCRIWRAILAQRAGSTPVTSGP
Description: Selectivity interaction (KinomeScan (DiscoverX)) EUB0001619a MAP3K6. As to conditions: at 1 µM.

Test [6] addresses T3, Serine/threonine-protein kinase Sgk1 (Homo sapiens) (UniProt O00141).
T3 sequence (whole entry): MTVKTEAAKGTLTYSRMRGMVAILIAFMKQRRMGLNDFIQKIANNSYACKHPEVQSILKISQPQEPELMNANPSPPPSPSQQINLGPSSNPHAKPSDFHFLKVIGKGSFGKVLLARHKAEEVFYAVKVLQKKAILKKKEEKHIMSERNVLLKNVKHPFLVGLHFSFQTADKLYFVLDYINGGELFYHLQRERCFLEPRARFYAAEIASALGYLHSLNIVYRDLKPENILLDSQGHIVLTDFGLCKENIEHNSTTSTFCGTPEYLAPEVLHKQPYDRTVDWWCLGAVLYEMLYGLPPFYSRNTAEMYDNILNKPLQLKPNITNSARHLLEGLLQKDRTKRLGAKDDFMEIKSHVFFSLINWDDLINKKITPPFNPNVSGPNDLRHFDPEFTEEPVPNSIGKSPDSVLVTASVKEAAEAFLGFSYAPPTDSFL
Description: Selectivity interaction (KinomeScan (DiscoverX)) EUB0000695a SGK1. As to conditions: at 100 nM.

Mitogen-activated protein kinase 14, sequence (Q16539 whole entry): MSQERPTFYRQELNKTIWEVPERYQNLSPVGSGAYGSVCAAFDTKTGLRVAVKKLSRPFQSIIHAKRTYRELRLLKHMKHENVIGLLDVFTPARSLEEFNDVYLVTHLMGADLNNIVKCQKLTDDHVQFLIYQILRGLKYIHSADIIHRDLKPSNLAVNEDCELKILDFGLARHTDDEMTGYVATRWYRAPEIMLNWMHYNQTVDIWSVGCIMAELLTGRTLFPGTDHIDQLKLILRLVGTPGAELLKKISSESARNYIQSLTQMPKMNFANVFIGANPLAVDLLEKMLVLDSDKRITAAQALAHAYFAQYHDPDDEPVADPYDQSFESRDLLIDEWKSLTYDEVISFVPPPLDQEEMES
High affinity nerve growth factor receptor, sequence (P04629 33-796 limits assumed): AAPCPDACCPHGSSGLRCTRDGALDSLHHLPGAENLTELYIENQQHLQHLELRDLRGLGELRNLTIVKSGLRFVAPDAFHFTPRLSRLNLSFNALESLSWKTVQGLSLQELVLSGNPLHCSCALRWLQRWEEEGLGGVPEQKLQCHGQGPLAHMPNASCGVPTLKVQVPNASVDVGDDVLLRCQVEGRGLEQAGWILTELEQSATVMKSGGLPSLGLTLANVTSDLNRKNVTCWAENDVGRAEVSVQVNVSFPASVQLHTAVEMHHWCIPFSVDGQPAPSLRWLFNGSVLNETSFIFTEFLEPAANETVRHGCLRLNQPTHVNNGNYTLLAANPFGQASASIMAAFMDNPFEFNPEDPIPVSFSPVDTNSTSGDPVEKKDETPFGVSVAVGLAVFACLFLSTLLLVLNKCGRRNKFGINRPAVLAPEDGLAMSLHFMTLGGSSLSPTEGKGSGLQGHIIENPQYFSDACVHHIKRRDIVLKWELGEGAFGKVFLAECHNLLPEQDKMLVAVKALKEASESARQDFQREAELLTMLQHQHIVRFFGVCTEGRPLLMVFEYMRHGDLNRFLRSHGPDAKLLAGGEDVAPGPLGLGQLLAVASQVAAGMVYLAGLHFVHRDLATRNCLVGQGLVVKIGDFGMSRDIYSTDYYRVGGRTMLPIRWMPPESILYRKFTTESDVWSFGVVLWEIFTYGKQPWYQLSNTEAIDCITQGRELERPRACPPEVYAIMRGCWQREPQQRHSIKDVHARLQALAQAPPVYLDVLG
Cyclin-dependent kinase-like 3 (Homo sapiens), sequence (Q8IVW4 whole entry, looked up): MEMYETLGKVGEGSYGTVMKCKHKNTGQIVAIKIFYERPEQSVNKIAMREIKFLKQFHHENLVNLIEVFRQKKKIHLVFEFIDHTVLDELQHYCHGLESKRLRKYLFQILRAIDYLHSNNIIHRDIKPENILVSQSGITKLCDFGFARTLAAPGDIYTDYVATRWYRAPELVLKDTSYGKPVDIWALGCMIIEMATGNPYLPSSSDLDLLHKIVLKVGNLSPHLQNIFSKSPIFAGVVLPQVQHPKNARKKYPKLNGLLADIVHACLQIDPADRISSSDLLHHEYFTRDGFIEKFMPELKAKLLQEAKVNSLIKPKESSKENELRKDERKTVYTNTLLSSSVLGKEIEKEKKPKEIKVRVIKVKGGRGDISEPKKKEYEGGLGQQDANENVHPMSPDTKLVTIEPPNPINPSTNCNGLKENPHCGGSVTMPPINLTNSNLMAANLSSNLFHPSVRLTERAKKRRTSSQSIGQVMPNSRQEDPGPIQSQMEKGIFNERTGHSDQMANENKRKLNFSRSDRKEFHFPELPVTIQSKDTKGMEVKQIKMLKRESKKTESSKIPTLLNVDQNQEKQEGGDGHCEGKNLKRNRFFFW

Take `CNC(=O)Nc1ccc(-c2nc(N3CC4CCC(C3)O4)c3cnn(C4CCC5(CC4)OCCO5)c3n2)cc1`: the % of inhibition in test [1] is 10%. The same compound showed a % of control in test [2] of 100%.

Compound `Cc1cc([C@@H](C)Nc2ccccc2C(=O)O)c2nc(N3CCOCC3)cc(=O)n2c1` [AZD-6482] returned a % of control in test [3] of 90%.

As to `Nc1cnc(N2CCc3cc(S(=O)(=O)Nc4c(F)cc(Cl)cc4F)cc(N4CCCC4=O)c32)nc1` [TP-020n], in test [4], the % of control was determined as 100%.

In turn, `N#Cc1cccc(-c2c[nH]c3ncnc(N4CCOCC4)c23)c1` returned a % of control in test [5] of 57%.

In test [6], `Cc1cc(F)c(C(=O)Nc2cccc(-c3nncn3C(C)C)n2)cc1-n1cnc(C2CC2)c1` yielded a % of control of 90%.
